Key:
[1] = system: HCT-116; test: Cytotoxicity against human HCT116 cells; format: functional, cell-based
[2] = target: T1, Dual specificity protein kinase TTK (Homo sapiens, UniProt P33981); test: Inhibition of full-length Mps1 kinase (unknown origin)
T1 sequence (P33981 whole entry): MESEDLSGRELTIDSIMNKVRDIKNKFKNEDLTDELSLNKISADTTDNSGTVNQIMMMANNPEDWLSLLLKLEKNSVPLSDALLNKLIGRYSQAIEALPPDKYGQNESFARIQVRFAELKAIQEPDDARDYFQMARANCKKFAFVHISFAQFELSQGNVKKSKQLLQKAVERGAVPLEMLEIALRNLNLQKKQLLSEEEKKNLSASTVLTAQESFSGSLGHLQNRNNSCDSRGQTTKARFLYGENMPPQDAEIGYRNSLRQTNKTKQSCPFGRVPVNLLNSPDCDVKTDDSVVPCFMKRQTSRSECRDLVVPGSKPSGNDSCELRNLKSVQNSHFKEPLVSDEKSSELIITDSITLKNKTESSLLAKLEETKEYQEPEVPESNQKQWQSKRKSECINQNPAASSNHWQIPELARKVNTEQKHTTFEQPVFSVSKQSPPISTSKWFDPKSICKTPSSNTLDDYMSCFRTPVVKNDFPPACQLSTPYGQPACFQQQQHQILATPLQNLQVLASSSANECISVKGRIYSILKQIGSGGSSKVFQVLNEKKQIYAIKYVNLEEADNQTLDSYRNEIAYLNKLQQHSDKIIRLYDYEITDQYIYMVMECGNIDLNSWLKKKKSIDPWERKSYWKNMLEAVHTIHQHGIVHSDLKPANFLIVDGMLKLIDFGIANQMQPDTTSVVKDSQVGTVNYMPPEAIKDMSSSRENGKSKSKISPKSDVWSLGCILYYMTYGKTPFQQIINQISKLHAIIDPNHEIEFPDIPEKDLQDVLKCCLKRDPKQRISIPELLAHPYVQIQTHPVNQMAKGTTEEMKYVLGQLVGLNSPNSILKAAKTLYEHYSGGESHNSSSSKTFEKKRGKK

SMILES	IC50 [1] [nM]	IC50 [2] [nM]
COc1cc(N2CCN(S(C)(=O)=O)CC2)ccc1Nc1nccc(N(C)C2CCCCC2)n1	2000	35
COc1cc(N2CCN(S(C)(=O)=O)CC2)ccc1Nc1ncc2ccn(-c3ccccc3)c2n1		> 100
COc1cc(N2CCOCC2)ccc1Nc1ncc2ccc(-c3ccccc3)cc2n1		> 100
COc1cc(N2CCN(S(C)(=O)=O)CC2)ccc1Nc1ncc2ccn(-c3ccccn3)c2n1	10000	32
COc1cc(N2CCN(S(C)(=O)=O)CC2)ccc1Nc1ncc2cccc(NC3CCCCC3)c2n1	810	2
COc1cc(N2CCOCC2)ccc1Nc1ncc2ccc(NC3CCCCC3)cc2n1		> 100
Cc1cc(N2CCOCC2)ccc1Nc1nc(NC2CCCCC2)c2nc[nH]c2n1	23	
COc1cc(N2CCN(S(C)(=O)=O)CC2)ccc1Nc1ncc(C)c(NC2CCCCC2)n1	1500	28
Cc1cc(N2CCOCC2)ccc1Nc1ncc2ccn(C3CCCCC3)c2n1	8600	22
COc1cc(N2CCN(S(C)(=O)=O)CC2)ccc1Nc1ncc2cccc(-c3cccnc3)c2n1	1580	8
COc1cc(N2CCN(S(C)(=O)=O)CC2)ccc1Nc1ncc2cccc(-c3ccccc3)c2n1	1740	5
COc1cc(N2CCN(S(C)(=O)=O)CC2)ccc1Nc1ncc(C)c(N(C)C2CCCCC2)n1		> 100
COc1cc(N2CCOCC2)ccc1Nc1ncc2cccc(NC3CCCCC3)c2n1	6320	9
COc1cc(N2CCN(S(C)(=O)=O)CC2)ccc1Nc1ncc2ccn(C3CCCCC3)c2n1	750	20
COc1cc(N2CCOCC2)ccc1Nc1ncc2cccc(-c3ccccc3)c2n1	850	12
COc1cc(N2CCN(S(C)(=O)=O)CC2)ccc1Nc1nccc(NC2CCCCC2)n1		> 100
COc1cc(N2CCOCC2)ccc1Nc1ncc2ccn(C3CCCCC3)c2n1	7500	46
COc1cc(N2CCN(S(C)(=O)=O)CC2)ccc1Nc1ncc2ccn(-c3cccnc3)c2n1		> 100
